Like-named read-outs stand apart in the source and are kept apart here.
Key:
[1] = tested on: AKT activation; assay: Western blotting of AKT activation in NSCLC cells (A549); type: cell-based, human; conditions: 15 μM 30 min, pre-treatment and post-treatment, EGF 10 ng/mL 15 min
Protocol: DMSO was used as a vehicle control. For EGF stimulation, cells were incubated with 10 ng/mL with continuous drugs treatment for 15 min at 37° C.
Cells or EVs were lysed in RIPA lysis buffer (containing 50 mM Tris-HCl, 1% NP-40, 150 mM NaCl, 0.1% SDS, 1 mM PMSF, 1 mM Na3VO4) with complete protease and protease inhibitor cocktail (1:1000) (Sigma-Aldrich). The protein quantitation is analyzed by comparing to 2 mg/ml Bovine serum albumin (BSA). Prepare the cell sample with one-tenth of dilution and the EV sample without dilution. Next, prepare all sample to 30 ul then put 10 μl each well in 96-well plates. Protein concentrations were then determined using the BCA assay kit (Thermo, USA) according to the manufacturer's instructions. Then, the same amounts of protein lysates from cells and EVs were loaded onto 8-12% SDS polyacrylamide gels and subjected to electrophoresis at 80-100 V, followed by transferring the proteins to 0.22 or 0.45 μm poly-vinylidene fluoride membranes (Millipore). The membranes were blocked with 5% skimmed milk in PBST (Tris-buffered saline containing Tween-20) for 1 h at room temperature and then washed 3 times (10 minutes for each time) with TBST (1M Tris-HCL pH7.5, NaCl, Tween 20 in ddH2O). […] The membrane was exposed using enhanced chemiluminescence reagents and analyzed using the Fujifilm LAS4000 luminescent image analysis system.

[2] = tested on: AKT activation; assay: Western blotting of AKT activation in PDAC cells; type: cell-based, human; conditions: 20 μM, 6 hours
Protocol: Cells or EVs were lysed in RIPA lysis buffer (containing 50 mM Tris-HCl, 1% NP-40, 150 mM NaCl, 0.1% SDS, 1 mM PMSF, 1 mM Na3VO4) with complete protease and […] (1:1000) (Sigma-Aldrich). The protein quantitation is analyzed by comparing to 2 mg/ml Bovine serum albumin (BSA). Prepare the cell sample with one-tenth of dilution and the EV sample without dilution. Next, prepare all sample to 30 ul then put 10 μl each well in 96-well plates. Protein concentrations were then determined using the BCA assay kit (Thermo, USA) according to the manufacturer's instructions. Then, the same amounts of protein lysates from cells and EVs were loaded onto 8-12% SDS polyacrylamide gels and subjected to electrophoresis at 80-100 V, followed by transferring the proteins to 0.22 or 0.45 μm poly-vinylidene fluoride membranes (Millipore). The membranes were blocked with 5% skimmed milk in […] (Tris-buffered saline containing Tween-20) for 1 h at room temperature and then washed 3 times (10 minutes for each time) with TBST (1M Tris-HCL pH7.5, NaCl, Tween 20 in ddH2O). After the step of washing, probed with antibodies specific for EV-enriched markers at […] overnight. […] The membrane was exposed using enhanced chemiluminescence reagents and analyzed using the Fujifilm LAS4000 luminescent image analysis system. […]

[3] = target: T1, EGFR-HER2 protein-protein interactions (Homo sapiens, UniProt P00533+P04626); type: cell-based; conditions: HSC3 and SAS; pre-treatment 15 μM 30 min, then EGF 10 ng/mL 15 min
T1 construct: endogenous in cells; host or cells: HSC3 and SAS cells

[4] = target: T2, EGFR-MET protein-protein interactions (Homo sapiens, UniProt P00533+P08581); type: cell-based; conditions: HSC3; pre-treatment 15 μM 30 min, then EGF 10 ng/mL 15 min
T2 construct: endogenous in cells; host or cells: HSC3 cells
T2 sequence (P00533 25-1210): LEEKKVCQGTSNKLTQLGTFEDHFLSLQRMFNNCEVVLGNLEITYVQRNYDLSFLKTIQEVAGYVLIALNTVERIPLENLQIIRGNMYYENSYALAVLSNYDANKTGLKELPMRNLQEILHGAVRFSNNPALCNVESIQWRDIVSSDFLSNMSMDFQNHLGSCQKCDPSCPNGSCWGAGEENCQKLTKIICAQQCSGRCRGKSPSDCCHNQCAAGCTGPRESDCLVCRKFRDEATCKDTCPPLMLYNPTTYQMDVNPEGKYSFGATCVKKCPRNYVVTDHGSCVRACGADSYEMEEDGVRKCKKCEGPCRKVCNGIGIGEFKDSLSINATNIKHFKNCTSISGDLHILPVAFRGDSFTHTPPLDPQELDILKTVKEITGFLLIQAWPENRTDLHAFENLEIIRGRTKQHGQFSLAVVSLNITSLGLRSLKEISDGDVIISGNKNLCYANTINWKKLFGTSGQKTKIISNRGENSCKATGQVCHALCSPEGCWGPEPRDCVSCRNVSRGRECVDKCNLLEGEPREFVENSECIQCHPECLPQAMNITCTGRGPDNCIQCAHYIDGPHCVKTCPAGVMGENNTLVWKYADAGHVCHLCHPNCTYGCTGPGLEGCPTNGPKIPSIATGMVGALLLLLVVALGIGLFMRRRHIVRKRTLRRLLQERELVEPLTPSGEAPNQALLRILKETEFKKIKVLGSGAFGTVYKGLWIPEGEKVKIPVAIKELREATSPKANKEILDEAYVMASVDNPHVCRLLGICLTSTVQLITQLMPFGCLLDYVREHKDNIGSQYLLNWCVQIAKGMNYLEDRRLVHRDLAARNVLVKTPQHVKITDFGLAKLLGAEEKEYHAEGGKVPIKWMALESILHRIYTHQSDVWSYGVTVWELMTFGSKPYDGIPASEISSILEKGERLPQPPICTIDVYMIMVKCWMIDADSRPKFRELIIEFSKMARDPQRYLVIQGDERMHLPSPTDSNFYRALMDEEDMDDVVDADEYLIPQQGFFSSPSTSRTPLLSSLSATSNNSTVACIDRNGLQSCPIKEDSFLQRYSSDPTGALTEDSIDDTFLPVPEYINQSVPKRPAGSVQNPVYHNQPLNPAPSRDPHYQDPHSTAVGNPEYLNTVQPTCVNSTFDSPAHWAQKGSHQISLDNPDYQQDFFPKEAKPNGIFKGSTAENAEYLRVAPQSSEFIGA
T2 sequence (P08581 308-1390 limits assumed): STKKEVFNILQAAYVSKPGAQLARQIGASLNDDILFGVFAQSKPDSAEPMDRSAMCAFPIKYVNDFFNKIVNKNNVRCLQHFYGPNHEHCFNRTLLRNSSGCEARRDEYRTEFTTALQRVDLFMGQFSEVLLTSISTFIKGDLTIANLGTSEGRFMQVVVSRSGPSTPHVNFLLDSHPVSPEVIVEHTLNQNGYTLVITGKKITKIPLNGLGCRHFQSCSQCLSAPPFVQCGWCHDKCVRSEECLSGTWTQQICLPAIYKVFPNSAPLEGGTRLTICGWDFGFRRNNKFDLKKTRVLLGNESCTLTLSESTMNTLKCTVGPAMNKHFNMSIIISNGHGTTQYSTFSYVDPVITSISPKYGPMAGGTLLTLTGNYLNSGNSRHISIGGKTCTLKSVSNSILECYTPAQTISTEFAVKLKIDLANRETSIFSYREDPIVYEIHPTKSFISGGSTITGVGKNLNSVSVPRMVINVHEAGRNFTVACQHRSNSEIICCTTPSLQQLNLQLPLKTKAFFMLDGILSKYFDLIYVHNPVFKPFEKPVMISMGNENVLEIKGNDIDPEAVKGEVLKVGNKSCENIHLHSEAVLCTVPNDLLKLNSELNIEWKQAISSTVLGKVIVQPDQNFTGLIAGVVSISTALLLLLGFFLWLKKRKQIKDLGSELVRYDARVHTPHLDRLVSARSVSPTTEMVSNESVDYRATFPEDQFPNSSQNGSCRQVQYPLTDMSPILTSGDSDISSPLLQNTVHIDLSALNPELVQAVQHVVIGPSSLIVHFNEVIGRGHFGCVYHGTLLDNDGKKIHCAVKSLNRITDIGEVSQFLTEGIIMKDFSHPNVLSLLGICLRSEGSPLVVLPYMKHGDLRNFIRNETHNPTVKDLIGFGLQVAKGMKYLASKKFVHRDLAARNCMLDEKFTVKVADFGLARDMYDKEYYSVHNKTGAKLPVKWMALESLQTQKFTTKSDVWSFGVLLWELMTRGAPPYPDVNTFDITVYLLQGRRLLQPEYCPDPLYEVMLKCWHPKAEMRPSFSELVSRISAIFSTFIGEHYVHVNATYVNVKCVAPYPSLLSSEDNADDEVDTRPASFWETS

[5] = tested on: 3R-4 and 3R-5-1 tumoroids; assay: Protein expression in pancreatic cancer patient-derived tumoroids (western blotting, immunofluorescence); type: cell-based, human; conditions: 72-hour treatment
[6] = tested on: PDAC cells (BxPC-3, PANC-1, AsPC-1); assay: Transwell migration assay of PDAC cells; type: cell-based, human; conditions: compared to gemcitabine treatment
[7] = tested on: H6C7 cells and WI-38 cells; assay: Co-culture cell migration with PDAC-derived secretomes; type: cell-based, human
Protocol: In the transwell migration assay, cells were seeded in upper chambers of Transwell plates (Transwell® Permeable Support, 6.5 mm insert, 24 well plate, 8.0 μm pore polyester membrane with sterile, Corning, #3464) in serum-free (SF) medium and seeded 5×10^4-1×10^5 cells per well, while lower chambers were added medium with 10% FBS as an attractant. Drugs were treated in both upper and lower chambers, and incubated on the 24-well plate at 37° C. for 16-24 hours. The cells were fix with 4% paraformaldehyde (PFA, SIGMA, #F8775) for 10 minutes and staining with 1% crystal violet (MERCK, 1 g Crystal violet powder dissolved in 75 ml ddH2O and 25 ml […] then filters by 0.45 μm filter) for 0.5 hours. After drying the insert completely, take at least 3 cell pictures randomly in every sample by microscope and count the number of cells by Image J.
To initiate this exploration, a transwell migration assay in vitro was performed to assess the migration ability of PDAC cells. […] To achieve this, a co-culture cell migration system was established to examine the behavioral changes in normal cells treated with PDAC-derived secretomes.
For the cell line selection, the H6C7 cell line, derived from normal human pancreatic duct epithelial (HPDE) cells and immortalized, was employed to investigate the interactions between PDAC cells and human pancreatic duct cells. This cell line serves as a valuable tool for studying the molecular and cellular interactions that occur between PDAC cells and their surrounding pancreatic ductal epithelial cells. Additionally, to simulate the lung tissue environment and validate PDAC cells with high metastatic potential to the lung, human lung fibroblasts known as WI-38 cells were chosen as a relative normal cell model. By utilizing this model, the interactions between PDAC cells and the lung microenvironment can be examined and assessed.

[8] = tested on: integrin α6/β4 on BxPC-3-derived EVs; assay: Laminin coating wound healing assay with BxPC-3-derived EVs; type: cell-based, human; conditions: laminin coating 1 μg/cm^2; EVs from PCP-treated BxPC-3 cells
Protocol: The culture inserts (ibidi, #80209) was put on 6 well dishes (2 inserts for each well), irradiated UV for 20 minutes and cells were seeded into the well of the insert and incubating 24 hours. The insert was removed gently and washed twice with PBS to remove the old medium and cell and be observed the gap which was formed by the insert through the microscope and captured the picture of the gap at 0 hours. After I captured of the gap, different treatments were added and incubated for 16 hours. The result was observed by the microscope and quantified by Image J.
In this assay, H6C7 cells were seeded in the wound healing inserts with or without 1 μg/cm^2 laminin coating in the six-well plate. Once the cells were attached, the wound healing inserts were removed, and H6C7 cells were exposed to BxPC-3-derived EVs and PCP-treated BxPC-3 cell-derived EVs.

[9] = tested on: BEAS-2B and CL141 cells; assay: Transwell cell migration with NSCLC-derived secretomes and EVs; type: cell-based, human
[10] = tested on: BxPC-3 cells; assay: Laminin-induced cell proliferation (SRB); type: cell-based, human; conditions: 48 hours
[11] = tested on: integrin α6/β4; assay: Western blotting of integrin α6/β4 on PDAC-derived EVs; type: cell-based, human; conditions: EVs derived from BxPC-3 and PANC-1 cells; short-term treatment
[12] = tested on: BxPC-3 cell-derived EVs; assay: NanoFCM analysis of EV subpopulations from BxPC-3 cells; type: cell-based, human
Protocol: EV samples containing 3×10^9 particles were incubated with diluted antibodies (1:1000), including FITC-anti-CD9 antibodies, PE-anti-CD63 antibodies, and APC-anti-integrin β4 antibodies, for 30 minutes in a 37° C. water bath. Following the incubation period, an Amicon® Ultra Centrifugal Filter with a 100 kDa molecular weight cutoff (MWCO) was used and rinsed with 1× PBS buffer. The samples were centrifuged at 4000×g for 5 minutes, with the centrifugation process repeated three times. After centrifugation, the samples were retrieved and diluted 10-100 times for detecting the expression levels of EV surface proteins by NanoFCM. The results were analyzed using Kaluza Analysis Software.

[13] = target: T3, EGFR-p-EGFR protein-protein interactions (Homo sapiens, UniProt P00533); assay: Proximity ligation assay in PDAC cells (BxPC-3); type: cell-based; design: endogenous in cells; conditions: pre-treatment 15 μM 30 min, then EGF 10 ng/mL 15 min
T3 sequence (P00533 25-1210): as the sequence (P00533 25-1210) above

[14] = target: T3, EGFR-p-EGFR protein-protein interactions; type: cell-based; design: endogenous in cells; host or cells: HSC3 and SAS cells; conditions: HSC3 and SAS; pre-treatment 15 μM 30 min, then EGF 10 ng/mL 15 min
[15] = 3R-4 tumoroids, western blotting

With `CN1CCN(CCCN2c3ccccc3Sc3ccc(Cl)cc32)CC1` [PCP, Prochlorperazine] the AKT activation [1] was “effectively suppressed AKT activation”, the AKT activation [2] was “suppressed AKT activation” and the EGFR-HER2 protein-protein interactions [3] was “could suppress EGFR-HER2 protein-protein interactions”. For the same molecule, the EGFR-MET protein-protein interactions [4] was “could suppress EGFR-MET protein-protein interactions”, the “expression levels of CD9 and integrin β4” value ([5]; 3R-4 and 3R-5-1 tumoroids, immunofluorescence) was “also inhibited the expression levels of CD9 and integrin β4” and the “expression levels of GPC1” value [5, 15] was “unchanged expression levels of GPC1”. The “expression levels of integrin α6/β4, CD9, EGFR, HER2, HER3” value [5, 15] was “inhibited the expression levels”, the “migration ability of PDAC cells” value [6] was “significantly suppressed” and the “migratory capability of WI-38 cells” value ([7]; AsPC-1-derived secretomes) was “comparatively weaker effect”. The “migratory capability of WI-38 cells” value ([7]; BxPC-3-derived secretomes) was “strongest inhibition”, the “migratory capability of WI-38 cells” value ([7]; PANC-1-derived secretomes) was “least effect” and the “migratory behavior of H6C7 cells” value ([7]; co-culture with BxPC-3-derived secretomes) was “significantly suppressed”. For the same molecule, the “functional activity of integrin α6/β4 on EVs (migration of H6C7 cells)” value [8] was “significantly inhibited”, the “migratory capability induced by NSCLC-derived secretomes” value ([9]; BEAS-2B and CL141, secretomes from H441 cells) was “inhibitory effect” and the “migratory capability induced by NSCLC-derived EVs” value ([9]; treated cells with NSCLC-derived EVs) was “could downregulate this increased migratory capability”. For the same molecule, the “laminin-induced cell proliferation rate” value ([10]; 1 μg/cm^2 laminin) was “reversed the increased cell proliferation rate”, the “drug sensitivity to PCP after laminin binding” value ([10]; compared to the vehicle group) was “significantly higher increase in drug sensitivity” and the “integrin α6/β4 protein expression on EVs” value [11] was “inhibited integrin α6/β4 protein expression”. The “co-expression levels of CD9 and integrin β4 proteins on ITGB4+CD9+ EVs” value [12] was “downregulated”, the “secretion of CD9-EVs” value [12] was “significantly downregulated” and the “secretion of CD63-EVs” value [12] was “upregulating”. For the same molecule, the “secretion of ITGB4+CD9+ EVs” value [12] was “significantly suppressed”, the EGFR-p-EGFR protein-protein interactions [13] was “could suppress” and the EGFR-p-EGFR protein-protein interactions [14] was “could suppress EGFR-p-EGFR protein-protein interactions”.
